From patent US20260008783A1, “MODULATORS OF FSHR AND USES THEREOF” (Celmatix Inc., priority 2022, published 2026)

Target: T1, Follicle Stimulating Hormone Receptor (FSHR) (Homo sapiens, UniProt P23945)
T1 construct: HA (N); expressed in transfected cells; host or cells: CHO-K1, transient transfection, pHM6 vector (CMV promoter)
T1 sequence (P23945 18-695): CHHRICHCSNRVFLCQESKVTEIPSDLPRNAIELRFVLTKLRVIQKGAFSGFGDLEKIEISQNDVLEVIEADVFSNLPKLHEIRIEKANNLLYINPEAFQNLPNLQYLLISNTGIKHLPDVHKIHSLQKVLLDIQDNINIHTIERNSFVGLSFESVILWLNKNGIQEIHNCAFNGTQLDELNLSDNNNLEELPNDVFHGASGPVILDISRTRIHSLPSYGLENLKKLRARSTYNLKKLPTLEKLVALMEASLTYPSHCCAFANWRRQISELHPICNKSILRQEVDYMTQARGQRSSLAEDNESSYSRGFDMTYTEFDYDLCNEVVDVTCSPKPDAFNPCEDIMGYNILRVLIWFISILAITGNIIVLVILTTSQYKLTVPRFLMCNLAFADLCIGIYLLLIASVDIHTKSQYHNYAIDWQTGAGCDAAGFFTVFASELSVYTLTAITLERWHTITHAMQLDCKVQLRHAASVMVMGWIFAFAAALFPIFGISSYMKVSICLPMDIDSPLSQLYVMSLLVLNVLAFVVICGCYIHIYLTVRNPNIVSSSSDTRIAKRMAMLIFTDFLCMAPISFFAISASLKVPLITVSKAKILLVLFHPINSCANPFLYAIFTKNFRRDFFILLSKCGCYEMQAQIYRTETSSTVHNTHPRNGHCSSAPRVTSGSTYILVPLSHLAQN
Experiment: HTRF cAMP agonist assay, FSHR, transiently transfected CHO-K1 cells
Type: cell-based
Details: CHO-K1 cells transiently expressing human FSHR, read-out: IC50 FSHR LANCE CAMP
Excerpt: Example 17. HTRF cAMP Agonist Assay Protocol (for FSHR, TSHR, LHCGR)
Mammalian expression vectors designed to express either Follicle Stimulating Hormone Receptor (FSHR), Thyroid Stimulating Hormone Receptor (TSHR), or Luteinizing Hormone/Choriogonadotropin Receptor (LHCGR), were generated with an HA-tag on the N-terminus. All constructs were expressed under a human cytomegalovirus (CMV) immediate early enhancer and promoter using the pHM6 expression vector. The protein coding region was confirmed by sequence analysis to be in-frame and of the expected sequence, matching the following accession numbers: FSHR NM_000145, TSHR NM_000369, and LHCGR NM_000233.
HTRF cAMP assays were performed using Chinese Hamster Ovary (CHO-K1) cell lines transiently expressing human FSH, TSH, and LHCG receptors. 48 hours before the assay, cells were washed with PBS and then dissociated from tissue culture flasks with 0.25% trypsin. Dissociated cells were quenched in full media (F-12K Medium Corning REF #10-025-CV, 10% Avantor Seradigm FB Essence Cat #10803-034, 1% Penicillin/Streptomycin Cytiva HyClone Cat #SV30010) and then collected by centrifugation at 290×g for 5 min. Cells were resuspended in full media and dispensed into 150 mm cell culture dishes (Nest Scientific Cat #715001), at 2.3×10^6 cells/flask. 7 hours later, cells were transfected using Lipofectamine transfection reagent (Invitrogen Cat #18324020). Briefly, 60 μL of lipofectamine was dispensed into 2 mL of Opti-MEM (Gibco Cat #31985070) and incubated for 5 minutes at room temperature. Then, the mixture was added onto […] of DNA and incubated for another 20 minutes at room temperature. Cells were washed with warm (37° C.) PBS. 17.5 mL of Opti-MEM was dispensed onto the cells, followed by addition of the Opti-MEM/lipofectamine/DNA mixture. Cells were incubated overnight in a 37° C., 5% CO2 cell incubator. 17-19 hours later, Opti-MEM was aspirated off the cells and replaced with full media. Cells were incubated for another 24 hours in a 37° C., 5% CO2 cell incubator.
On the day of the assay, cells were washed with PBS and then dissociated from tissue culture flasks with 0.25% trypsin. Dissociated cells were quenched in full media and then collected by centrifugation at 290×g for 5 min. Cells were resuspended in PBS^+/+ (Corning REF #20-030-CV) to a concentration of 2×10^5 cells/mL. 10 μL/well of cells (2,000 cells/well) were dispensed into 384-well Corning plates (REF #3825), in triplicate. Cells were incubated at room temperature for 2 hours.
Example FSHR Modulator compounds were diluted in assay buffer (PBS^+/+, 0.05% BSA Sigma-Aldrich A3059, 500 μM IBMX Sigma-Aldrich 15879) to 3.5× the final assay concentration. 4 μL of test agonist was added to the cells and incubated for 1 hour at room temperature. 10 μL of cAMP detection reagents (LANCE Ultra cAMP Detection Kit PerkinElmer TRF0264) were dispensed onto the cells and plates were incubated for 2 hours at room temperature (cAMP detection reagents were made according to the PerkinElmer kit protocol). Plates were read on an Envision plate reader following PerkinElmer guidelines.
Raw data for all assays was transmitted directly from plate readers into a database for processing. All assay plates contained both positive and negative control wells to allow for data normalization and scaling. In agonist assays, negative control wells contained assay buffer and positive control wells contained […] positive control (10 nM Follicle Stimulating Hormone Sigma-Aldrich F4021, 50 nM Thyroid Stimulating Hormone Sigma-Aldrich 869006, 50 nM Luteinizing Hormone MyBioSource MBS5308806, for their respective receptors). All control wells contained DMSO at a final assay concentration that matched the test compound wells. […]
Percent control data were analyzed by non-linear regression with a sigmoidal dose response algorithm in the database to yield potency and efficacy data.

COc1cc2c(cc1-c1cncc(C(N)=O)c1)-c1c(c(C(=O)N(C)C(C)(C)C)nn1-c1cc(Cl)cc(Cl)c1)[S+]([O-])C2 (single isomer, unassigned) [Compound 3-06]
IC50: 43.4 nM

COc1cc2c(cc1-c1cncc(C(N)=O)c1)-c1c(c(C(=O)N3CCN(C(=O)OC(C)(C)C)C[C@@H]3C(C)C)nn1-c1cc(Cl)cc(Cl)c1)CC2 (stereo in doubt) [Compound 8-25A]
IC50: 754 nM

COc1cc2c(cc1-c1cncc(C(N)=O)c1)-c1c(c(C(=O)N3CCOCC3(C)C)nn1-c1cc(Cl)cc(Cl)c1)OC2 [Compound 2-01, 5-[1-(3,5-dichlorophenyl)-3-(3,3-dimethylmorpholine-4-carbonyl)-7-methoxy-5H-isochromeno[4,3-c]pyrazol-8-yl]pyridine-3-carboxamide]
IC50: 3.44 nM

COc1cc2c(cc1-c1cncc(C(N)=O)c1)-c1c(c(C(=O)N(C)C(C)(C)C)nn1-c1cc(Cl)cc(Cl)c1)OC2 [Compound 2-02]
IC50: 1.98 nM

COc1cc2c(cc1-c1cncc(C(N)=O)c1)-c1c(c(C(=O)N3CCOCC3(C)C)nn1-c1ccsc1)OC2 [Compound 2-03]
IC50: 22 nM

COc1cc2c(cc1-c1cncc(C(N)=O)c1)-c1c(c(C(=O)N(C)C(C)(C)C)nn1-c1ccsc1)OC2 [Compound 2-04]
IC50: 7.92 nM

COc1cc2c(cc1-c1ccn(C)n1)-c1c(c(C(=O)N3CCOCC3(C)C)nn1-c1cc(Cl)cc(Cl)c1)OC2 [Compound 2-05, [1-(3,5-dichlorophenyl)-7-methoxy-8-(1-methylpyrazol-3-yl)-5H-isochromeno[4,3-c]pyrazol-3-yl]-(3,3-dimethylmorpholin-4-yl)methanone]
IC50: 638 nM

COc1cc2c(cc1-c1ccn(C)n1)-c1c(c(C(=O)N(C)C(C)(C)C)nn1-c1cc(Cl)cc(Cl)c1)OC2 [Compound 2-06]
IC50: 195 nM

COc1cc2c(cc1-c1ccn(C)n1)-c1c(c(C(=O)N3CCOCC3(C)C)nn1-c1ccsc1)OC2 [Compound 2-07]
IC50: 2410 nM

COc1cc2c(cc1-c1ccn(C)n1)-c1c(c(C(=O)N(C)C(C)(C)C)nn1-c1ccsc1)OC2 [Compound 2-08]
IC50: 475 nM

COc1cc2c(cc1-c1cncc(C(N)=O)c1)-c1c(c(C(=O)N3CCOCC3(C)C)nn1-c1cc(Cl)cc(Cl)c1)SC2 [Compound 3-01, 5-[1-(3,5-dichlorophenyl)-3-(3,3-dimethylmorpholine-4-carbonyl)-7-methoxy-5H-isothiochromeno[4,3-c]pyrazol-8-yl]pyridine-3-carboxamide]
IC50: 6.72 nM

COc1cc2c(cc1-c1cncc(C(N)=O)c1)-c1c(c(C(=O)N(C)C(C)(C)C)nn1-c1cc(Cl)cc(Cl)c1)SC2 [Compound 3-02, N-tert-butyl-8-(5-carbamoyl-3-pyridyl)-1-(3,5-dichlorophenyl)-7-methoxy-N-methyl-5H-isothiochromeno[4,3-c]pyrazole-3-carboxamide]
IC50: 3.92 nM

COc1cc2c(cc1-c1ccn(C)n1)-c1c(c(C(=O)N3CCOCC3(C)C)nn1-c1cc(Cl)cc(Cl)c1)SC2 [Compound 3-03, (1-(3,5-dichlorophenyl)-7-methoxy-8-(1-methyl-1H-pyrazol-3-yl)-1,5-dihydroisothiochromeno[4,3-c]pyrazol-3-yl)(3,3-dimethylmorpholino)methanone]
IC50: 325 nM

COc1cc2c(cc1-c1ccn(C)n1)-c1c(c(C(=O)N(C)C(C)(C)C)nn1-c1cc(Cl)cc(Cl)c1)SC2 [Compound 3-04, N-tert-butyl-1-(3,5-dichlorophenyl)-7-methoxy-N-methyl-8-(1-methylpyrazol-3-yl)-5H-isothiochromeno[4,3-c]pyrazole-3-carboxamide]
IC50: 223 nM

COc1cc2c(cc1-c1cncc(C(N)=O)c1)-c1c(c(C(=O)N3CCOCC3(C)C)nn1-c1cc(Cl)cc(Cl)c1)[S+]([O-])C2 (stereo not shown) [Compound 3-05]
IC50: 55.7 nM

COc1cc2c(cc1-c1cncc(C(N)=O)c1)-c1c(c(C(=O)N(C)C(C)(C)C)nn1-c1cc(Cl)cc(Cl)c1)[S+]([O-])C2 (stereo not shown) [Compound 3-07, N-tert-butyl-8-(5-carbamoyl-3-pyridyl)-1-(3,5-dichlorophenyl)-7-methoxy-N-methyl-4-oxo-5H-isothiochromeno[4,3-c]pyrazole-3-carboxamide]
IC50: 4560 nM

COc1cc2oc3c(C(=O)N4CCOCC4(C)C)nn(-c4ccsc4)c3c2cc1-c1cncc(C#N)c1 [Compound 4-03, 5-[3-(3,3-dimethylmorpholine-4-carbonyl)-6-methoxy-1-(3-thienyl)benzofuro[3,2-c]pyrazol-7-yl]pyridine-3-carbonitrile]
IC50: 579 nM

COc1cc2oc3c(C(=O)N4CCOCC4(C)C)n(-c4ccsc4)nc3c2cc1-c1cncc(C(N)=O)c1 [Compound 4-03A]
IC50: 1860 nM

COc1cc2oc3c(C(=O)N4CCOCC4(C)C)nn(-c4ccsc4)c3c2cc1-c1cncc(C#N)c1 [Compound 4-03B]
IC50: 2360 nM

COc1cc2oc3c(C(=O)N(C)C(C)(C)C)n(-c4ccsc4)nc3c2cc1-c1cncc(C(N)=O)c1 [Compound 4-04A]
IC50: 1360 nM

COc1cc2oc3c(C(=O)N(C)C(C)(C)C)nn(-c4ccsc4)c3c2cc1-c1cncc(C(N)=O)c1 [Compound 4-04]
IC50: 586 nM

COc1cc2oc3c(C(=O)N4CCOCC4(C)C)nn(-c4ccsc4)c3c2cc1-c1ccn(C)n1 [Compound 4-07, (3,3-dimethylmorpholin-4-yl)-[6-methoxy-7-(1-methylpyrazol-3-yl)-1-(3-thienyl)benzofuro[3,2-c]pyrazol-3-yl]methanone]
IC50: 2810 nM

COc1cc2c(cc1-c1cncc(C(N)=O)c1)-c1c(c(C(=O)N3CCOCC3(C)C)nn1-c1cc(Cl)cc(Cl)c1)C2 [Compound 5-01, 5-[1-(3,5-dichlorophenyl)-3-(3,3-dimethylmorpholine-4-carbonyl)-6-methoxy-4H-indeno[1,2-c]pyrazol-7-yl]pyridine-3-carboxamide]
IC50: 14.8 nM

COc1cc2c(cc1-c1cncc(C(N)=O)c1)-c1c(c(C(=O)N(C)C(C)(C)C)nn1-c1cc(Cl)cc(Cl)c1)C2 [Compound 5-02, N-tert-butyl-7-(5-carbamoyl-3-pyridyl)-1-(3,5-dichlorophenyl)-6-methoxy-N-methyl-4H-indeno[1,2-c]pyrazole-3-carboxamide]
IC50: 197 nM

COc1cc2c(cc1-c1cncc(C(N)=O)c1)-c1c(c(C(=O)N3CCOCC3(C)C)nn1-c1ccsc1)C2 [Compound 5-03, 5-[3-(3,3-dimethylmorpholine-4-carbonyl)-6-methoxy-1-(3-thienyl)-4H-indeno[1,2-c]pyrazol-7-yl]pyridine-3-carboxamide]
IC50: 4.64 nM
